Type in all cases: functional
Experiment [1] can be described thus: Antiproliferative activity against human MiaPaCa cells assessed as growth inhibition after 48 hrs by SRB assay. Particulars: MIA PaCa-2, 48 h.
A further experiment concerns HeLa. Nature of the experiment: Antiproliferative activity against human HeLa cells assessed as growth inhibition after 48 hrs by SRB assay. On the technique in general: Sulforhodamine B stains cellular protein and so reports cell mass.
The next experiment has as its system MDA-MB-231. Description: Antiproliferative activity against human MDA-MB-231 cells assessed as growth inhibition after 48 hrs by SRB assay. Particulars: MDA-MB-231, 48 h.
The nature of experiment [2]: Antiproliferative activity against human IMR32 cells assessed as growth inhibition after 48 hrs by SRB assay. The note with it: IMR-32, 48 h.

For the compound `COc1ccc(OC)c(-c2nc3ccccc3c(=O)n2C/C=C/c2ccc(-c3cnc4ccccc4n3)cc2)c1`, the GI50 was 1800 nM in experiment [1] (read-out: GI50); 1800 nM in experiment [1] (read-out: pGI50 (converted)); 38 nM in the experiment with HeLa (read-out: GI50); 38 nM in the experiment on HeLa (read-out: pGI50 (converted)); 1360 nM in the experiment on MDA-MB-231 (read-out: GI50); 1360 nM with MDA-MB-231 (read-out: pGI50 (converted)). Besides, the GI50 in experiment [2] (read-out: GI50) is 280 nM; in experiment [2] (read-out: pGI50 (converted)), 282 nM.
With `O=c1c2ccccc2nc(-c2ccc(F)cc2)n1C/C=C/c1ccc(-c2cnc3ccccc3n2)cc1`, the GI50 in experiment [1] (read-out: GI50) was less than 10 nM; in the experiment on HeLa (read-out: GI50), 16100 nM; in the experiment with HeLa (read-out: pGI50 (converted)) it was 16100 nM; in the experiment on MDA-MB-231 (read-out: GI50), 1700 nM; with MDA-MB-231 (read-out: pGI50 (converted)) it was 1700 nM; in experiment [2] (read-out: GI50), 65000 nM. Besides, the GI50 in experiment [2] (read-out: pGI50 (converted)) is 65000 nM.
For `O=c1c2ccccc2nc(-c2ccc(Cl)cc2Cl)n1C/C=C/c1ccc(-c2cnc3ccccc3n2)cc1`, the GI50 in experiment [1] (read-out: GI50) was 4400 nM; in experiment [1] (read-out: pGI50 (converted)) it was 4410 nM; in the experiment on HeLa (read-out: GI50) it was greater than 100000 nM; in the experiment with MDA-MB-231 (read-out: GI50), 400 nM; in the experiment with MDA-MB-231 (read-out: pGI50 (converted)) it was 401 nM; in experiment [2] (read-out: GI50), 2600 nM. For the same compound, in experiment [2] (read-out: pGI50 (converted)), the GI50 is 2600 nM.
For `COc1ccc(-c2nc3ccccc3c(=O)n2C/C=C/c2ccc(-c3cnc4ccccc4n3)cc2)c(F)c1`, the GI50 was 28600 nM in experiment [1] (read-out: GI50); 28600 nM in experiment [1] (read-out: pGI50 (converted)); 900 nM with HeLa (read-out: GI50); 902 nM in the experiment on HeLa (read-out: pGI50 (converted)); less than 10 nM in the experiment with MDA-MB-231 (read-out: GI50); 1200 nM in experiment [2] (read-out: GI50). Also, the GI50 in experiment [2] (read-out: pGI50 (converted)) is 1200 nM.
For the compound `O=c1c2ccccc2nc(-c2ccc(Cl)cc2)n1C/C=C/c1ccc(-c2cnc3ccccc3n2)cc1`, the GI50 was 6400 nM in experiment [1] (read-out: GI50); 6410 nM in experiment [1] (read-out: pGI50 (converted)); 69500 nM with HeLa (read-out: GI50); 69500 nM in the experiment with HeLa (read-out: pGI50 (converted)); 570 nM in the experiment with MDA-MB-231 (read-out: GI50); 570 nM in the experiment with MDA-MB-231 (read-out: pGI50 (converted)). Besides, in experiment [2] (read-out: GI50), the GI50 is less than 10 nM.
Turning to `COc1cccc(-c2nc3ccccc3c(=O)n2C/C=C/c2ccc(-c3cnc4ccccc4n3)cc2)c1`, the GI50 in experiment [1] (read-out: GI50) is 2000 nM; in experiment [1] (read-out: pGI50 (converted)), 2000 nM; with HeLa (read-out: GI50) it was 120 nM; in the experiment with HeLa (read-out: pGI50 (converted)), 120 nM; with MDA-MB-231 (read-out: GI50), 1250 nM; in the experiment on MDA-MB-231 (read-out: pGI50 (converted)), 1250 nM. For the same compound, the GI50 in experiment [2] (read-out: GI50) was 320 nM; in experiment [2] (read-out: pGI50 (converted)), 321 nM.
In the case of `O=c1c2ccccc2nc(-c2ccc(C(F)(F)F)cc2)n1C/C=C/c1ccc(-c2cnc3ccccc3n2)cc1`, the GI50 in experiment [1] (read-out: GI50) was 10000 nM; in experiment [1] (read-out: pGI50 (converted)) it was 10000 nM; in the experiment on HeLa (read-out: GI50), 17700 nM; with HeLa (read-out: pGI50 (converted)), 17700 nM; in the experiment on MDA-MB-231 (read-out: GI50), 1800 nM; with MDA-MB-231 (read-out: pGI50 (converted)), 1800 nM. Also, the figures for the GI50 in experiment [2] (read-out: GI50) and in experiment [2] (read-out: pGI50 (converted)) were 5300 nM and 5310 nM, respectively.
With `CC(=O)O[C@H]1C(=O)[C@@]2(C)[C@H]([C@H](OC(=O)c3ccccc3)[C@]3(O)C[C@H](OC(=O)[C@H](O)[C@@H](NC(=O)c4ccccc4)c4ccccc4)C(C)=C1C3(C)C)[C@]1(OC(C)=O)CO[C@@H]1C[C@@H]2O` [PACLITAXEL], the GI50 was 56 nM in experiment [1] (read-out: GI50); 56.1 nM in experiment [1] (read-out: pGI50 (converted)); 25 nM with HeLa (read-out: GI50); 25 nM with HeLa (read-out: pGI50 (converted)); 91 nM in the experiment on MDA-MB-231 (read-out: GI50); 91.2 nM in the experiment on MDA-MB-231 (read-out: pGI50 (converted)). Further, the GI50 was 75 nM in experiment [2] (read-out: GI50) and 75.2 nM in experiment [2] (read-out: pGI50 (converted)).
Consider `COc1cc(OC)c(-c2nc3ccccc3c(=O)n2C/C=C/c2ccc(-c3cnc4ccccc4n3)cc2)c(OC)c1`, for which the GI50 in experiment [1] (read-out: GI50) is 2200 nM; in experiment [1] (read-out: pGI50 (converted)), 2200 nM; in the experiment with HeLa (read-out: GI50) it was 2500 nM; in the experiment with HeLa (read-out: pGI50 (converted)) it was 2500 nM; in the experiment on MDA-MB-231 (read-out: GI50) it was less than 10 nM; in experiment [2] (read-out: GI50) it was 770 nM. Moreover, the GI50 in experiment [2] (read-out: pGI50 (converted)) was 771 nM.
As to `O=c1c2ccccc2nc(-c2ccc([N+](=O)[O-])cc2)n1C/C=C/c1ccc(-c2cnc3ccccc3n2)cc1`, the GI50 was 6100 nM in experiment [1] (read-out: GI50); 6110 nM in experiment [1] (read-out: pGI50 (converted)); 900 nM in the experiment on HeLa (read-out: GI50); 902 nM in the experiment on HeLa (read-out: pGI50 (converted)); 140 nM in the experiment on MDA-MB-231 (read-out: GI50); 140 nM with MDA-MB-231 (read-out: pGI50 (converted)). The GI50 in experiment [2] (read-out: GI50) is less than 10 nM.
As to `COc1cccc2c1C(=O)c1c(O)c3c(c(O)c1C2=O)C[C@@](O)(C(=O)CO)C[C@@H]3O[C@H]1C[C@H](N)[C@H](O)[C@H](C)O1` [DOXORUBICIN], the GI50 in experiment [1] (read-out: GI50) was 97 nM; in experiment [1] (read-out: pGI50 (converted)) it was 97 nM; with HeLa (read-out: GI50) it was 73 nM; in the experiment on HeLa (read-out: pGI50 (converted)), 73.1 nM; in the experiment on MDA-MB-231 (read-out: GI50) it was 85 nM; in the experiment with MDA-MB-231 (read-out: pGI50 (converted)) it was 85.1 nM. The GI50 in experiment [2] (read-out: GI50) and in experiment [2] (read-out: pGI50 (converted)) was 23 nM each time.
With `CCOc1ccc(-c2nc3ccccc3c(=O)n2C/C=C/c2ccc(-c3cnc4ccccc4n3)cc2)cc1`, the GI50 in experiment [1] (read-out: GI50) was 2200 nM; in experiment [1] (read-out: pGI50 (converted)), 2200 nM; in the experiment on HeLa (read-out: GI50), greater than 100000 nM; in the experiment on MDA-MB-231 (read-out: GI50), greater than 100000 nM; in experiment [2] (read-out: GI50) it was 470 nM; in experiment [2] (read-out: pGI50 (converted)) it was 471 nM.
With `O=c1c2ccccc2nc(-c2ccccc2)n1C/C=C/c1ccc(-c2cnc3ccccc3n2)cc1`, the GI50 was 2800 nM in experiment [1] (read-out: GI50); 2810 nM in experiment [1] (read-out: pGI50 (converted)); 5100 nM with HeLa (read-out: GI50); 5110 nM in the experiment with HeLa (read-out: pGI50 (converted)); 6400 nM in the experiment on MDA-MB-231 (read-out: GI50); 6410 nM in the experiment with MDA-MB-231 (read-out: pGI50 (converted)). In addition, the GI50 in experiment [2] (read-out: GI50) and in experiment [2] (read-out: pGI50 (converted)) was 1010 nM throughout.
`Cc1ccc(-c2nc3ccccc3c(=O)n2C/C=C/c2ccc(-c3cnc4ccccc4n3)cc2)cc1`: the GI50 in experiment [1] (read-out: GI50) was 11400 nM; in experiment [1] (read-out: pGI50 (converted)) it was 11400 nM; in the experiment with HeLa (read-out: GI50) it was 9200 nM; in the experiment with HeLa (read-out: pGI50 (converted)), 9200 nM; in the experiment on MDA-MB-231 (read-out: GI50) it was 1240 nM; in the experiment with MDA-MB-231 (read-out: pGI50 (converted)), 1240 nM. For the same compound, the GI50 in experiment [2] (read-out: GI50) and in experiment [2] (read-out: pGI50 (converted)) was 2200 nM each time.
Consider `COc1ccc(-c2nc3ccccc3c(=O)n2C/C=C/c2ccc(-c3cnc4ccccc4n3)cc2)c(OC)c1`, for which the GI50 in experiment [1] (read-out: GI50) was 13600 nM; in experiment [1] (read-out: pGI50 (converted)), 13600 nM; with HeLa (read-out: GI50), 31600 nM; in the experiment on HeLa (read-out: pGI50 (converted)), 31600 nM; with MDA-MB-231 (read-out: GI50), less than 10 nM; in experiment [2] (read-out: GI50) it was 6300 nM. The GI50 in experiment [2] (read-out: pGI50 (converted)) is 6310 nM.
On to `COc1ccc(-c2nc3ccccc3c(=O)n2C/C=C/c2ccc(-c3cnc4ccccc4n3)cc2)cc1`, for which the GI50 in experiment [1] (read-out: GI50) is 2100 nM; in experiment [1] (read-out: pGI50 (converted)), 2100 nM; in the experiment with HeLa (read-out: GI50) it was 1200 nM; in the experiment with HeLa (read-out: pGI50 (converted)), 1200 nM; in the experiment with MDA-MB-231 (read-out: GI50), 640 nM; with MDA-MB-231 (read-out: pGI50 (converted)), 641 nM. The results for the GI50 in experiment [2] (read-out: GI50) and in experiment [2] (read-out: pGI50 (converted)) were 2800 nM and 2810 nM, respectively.
Turning to `Cc1nc2ccccc2c(=O)n1CCCc1ccc(-c2cnc3ccccc3n2)cc1`, the GI50 in experiment [1] (read-out: GI50) is 1200 nM; in experiment [1] (read-out: pGI50 (converted)), 1200 nM; in the experiment with HeLa (read-out: GI50), 32 nM; with HeLa (read-out: pGI50 (converted)), 32.1 nM; in the experiment with MDA-MB-231 (read-out: GI50), 620 nM; in the experiment on MDA-MB-231 (read-out: pGI50 (converted)), 621 nM. Moreover, the GI50 in experiment [2] (read-out: GI50) and in experiment [2] (read-out: pGI50 (converted)) was 220 nM in each case.

The record behind these values is ChEMBL document CHEMBL3808390, “Quinazolinones-Phenylquinoxaline hybrids with unsaturation/saturation linkers as novel anti-proliferative agents” (2016).
